Laboratory results taken from ChEMBL document CHEMBL6074659, “Development of an Intravenously Stable Disulfide-Rich Peptide for the Treatment of Chemotherapy-Induced Neuropathic Pain” (J Med Chem, 2024).
Starred links: 1 amine or outer side, 2 acyl side, 3 side chain; linkers in the order of their positions; H or OH if unused. Positions of bridges follow the written chain, without caps; N, C: chain ends. Non-standard residues stand in square brackets, D forms with d. Residues, ends and D or L forms follow the SMILES beside them. Triazole bridges read from a SMILES are 1,4-linked. Aha = [N-]=[N+]=NCC[C@H](N)C(=O)O; Pra = C#CC[C@H](N)C(=O)O; Dap = NC[C@H](N)C(=O)O; CH2 = C([*:1])[*:2]

target: Neuronal acetylcholine receptor; alpha9/alpha10 (Homo sapiens) (UniProt Q9UGM1+Q9GZZ6); assay: Antagonist activity at human alpha9alpha10 nAChR expressed in acetylcholine-induced Xenopus laevis oocytes assessed as inhibition of acetylcholine-induced current at 10 nM at -80 mV holding potential incubated for 5 mins by two electrode voltage-clamp assay relative to control; type: cell-based; settings: Oocyte

Compound	inhibition
CC[C@H](C)[C@@H]1NC(=O)[C@H](CC(=O)O)NC(=O)[C@@H]2CCCN2C(=O)[C@H](CC(N)=O)NC(=O)[C@H](CC(N)=O)NC(=O)[C@H](C(C)C)NC(=O)[C@H](CO)NC(=O)[C@@H]2CSSC[C@@H]3NC(=O)CNC(=O)CNC(=O)[C@H](C)NC(=O)[C@H](C)NC(=O)CNC(=O)CNC(=O)[C@H](CSSC[C@H](NC3=O)C(=O)N[C@@H](CN)C(=O)N[C@@H](Cc3cnc[nH]3)C(=O)N3CCC[C@H]3C(=O)N[C@@H](C)C(=O)N2)NC1=O (HELM PEPTIDE1{A.A.G.G.C.C.[NC[C@H](N[*:1])C(=O)[*:2]].H.P.A.C.S.V.N.N.P.D.I.C.G.G}$PEPTIDE1,PEPTIDE1,5:R3-11:R3|PEPTIDE1,PEPTIDE1,6:R3-19:R3|PEPTIDE1,PEPTIDE1,1:R1-21:R2$$$V2.0)	20%
CC[C@H](C)[C@@H]1NC(=O)[C@H](CC(=O)O)NC(=O)[C@@H]2CCCN2C(=O)[C@H](CC(N)=O)NC(=O)[C@H](CC(N)=O)NC(=O)[C@H](C(C)C)NC(=O)[C@H](CO)NC(=O)[C@@H]2CSSC[C@@H]3NC(=O)CNC(=O)[C@@H](N)CCNC(=O)CC[C@@H](C(N)=O)NC(=O)[C@H](CSSC[C@H](NC3=O)C(=O)N[C@@H](CN)C(=O)N[C@@H](Cc3cnc[nH]3)C(=O)N3CCC[C@H]3C(=O)N[C@@H](C)C(=O)N2)NC1=O (HELM PEPTIDE1{[Dab].G.C.C.[NC[C@H](N[*:1])C(=O)[*:2]].H.P.A.C.S.V.N.N.P.D.I.C.E.[am]}$PEPTIDE1,PEPTIDE1,1:R3-18:R3|PEPTIDE1,PEPTIDE1,3:R3-9:R3|PEPTIDE1,PEPTIDE1,4:R3-17:R3$$$V2.0)	< 5%
CC[C@H](C)[C@@H]1NC(=O)[C@H](CC(=O)O)NC(=O)[C@@H]2CCCN2C(=O)[C@H](CC(N)=O)NC(=O)[C@H](CC(N)=O)NC(=O)[C@H](C(C)C)NC(=O)[C@H](CO)NC(=O)[C@@H]2CSSC[C@H](NC(=O)CN)C(=O)N[C@@H](CCC(=O)NCC[C@@H](C(N)=O)NC1=O)C(=O)N[C@@H](CN)C(=O)N[C@@H](Cc1cnc[nH]1)C(=O)N1CCC[C@H]1C(=O)N[C@@H](C)C(=O)N2 (HELM PEPTIDE1{G.C.E.[NC[C@H](N[*:1])C(=O)[*:2]].H.P.A.C.S.V.N.N.P.D.I.[Dab].[am]}$PEPTIDE1,PEPTIDE1,2:R3-8:R3|PEPTIDE1,PEPTIDE1,3:R3-16:R3$$$V2.0)	< 5%
CC[C@H](C)[C@@H]1NC(=O)[C@H](CC(=O)O)NC(=O)[C@@H]2CCCN2C(=O)[C@H](CC(N)=O)NC(=O)[C@H](CC(N)=O)NC(=O)[C@H](C(C)C)NC(=O)[C@H](CO)NC(=O)[C@@H]2CSSC[C@H](NC(=O)CN)C(=O)N[C@@H](CCNC(=O)C[C@@H](C(N)=O)NC1=O)C(=O)N[C@@H](CN)C(=O)N[C@@H](Cc1cnc[nH]1)C(=O)N1CCC[C@H]1C(=O)N[C@@H](C)C(=O)N2 (HELM PEPTIDE1{G.C.[Dab].[NC[C@H](N[*:1])C(=O)[*:2]].H.P.A.C.S.V.N.N.P.D.I.D.[am]}$PEPTIDE1,PEPTIDE1,2:R3-8:R3|PEPTIDE1,PEPTIDE1,3:R3-16:R3$$$V2.0)	< 5%
CC[C@H](C)[C@@H]1NC(=O)[C@H](CC(=O)O)NC(=O)[C@@H]2CCCN2C(=O)[C@H](CC(N)=O)NC(=O)[C@H](CC(N)=O)NC(=O)[C@H](C(C)C)NC(=O)[C@H](CO)NC(=O)[C@@H]2CSSC[C@H](NC(=O)CN)C(=O)N[C@@H](CCn3cc(nn3)C[C@@H](C(N)=O)NC1=O)C(=O)N[C@@H](CN)C(=O)N[C@@H](Cc1cnc[nH]1)C(=O)N1CCC[C@H]1C(=O)N[C@@H](C)C(=O)N2 (H-GC[Aha][Dap]HPACSVNNPDI[Pra]-NH2; disulfide 2-8; triazole 3-16)	< 15%
CC[C@H](C)[C@@H]1NC(=O)[C@H](CC(=O)O)NC(=O)[C@@H]2CCCN2C(=O)[C@H](CC(N)=O)NC(=O)[C@H](CC(N)=O)NC(=O)[C@H](C(C)C)NC(=O)[C@H](CO)NC(=O)[C@@H]2CSCSC[C@@H]3NC(=O)CNC(=O)[C@@H](N)CCC(=O)NCC[C@@H](C(N)=O)NC(=O)[C@H](CSSC[C@H](NC3=O)C(=O)N[C@@H](CN)C(=O)N[C@@H](Cc3cnc[nH]3)C(=O)N3CCC[C@H]3C(=O)N[C@@H](C)C(=O)N2)NC1=O (HELM PEPTIDE1{E.G.C.C.[NC[C@H](N[*:1])C(=O)[*:2]].H.P.A.C.S.V.N.N.P.D.I.C.[Dab].[am]}|CHEM1{[C([*:1])[*:2]]}$PEPTIDE1,PEPTIDE1,1:R3-18:R3|PEPTIDE1,CHEM1,3:R3-1:R1|PEPTIDE1,CHEM1,9:R3-1:R2|PEPTIDE1,PEPTIDE1,4:R3-17:R3$$$V2.0)	< 5%
CC[C@H](C)[C@@H]1NC(=O)[C@H](CC(=O)O)NC(=O)[C@@H]2CCCN2C(=O)[C@H](CC(N)=O)NC(=O)[C@H](CC(N)=O)NC(=O)[C@H](C(C)C)NC(=O)[C@H](CO)NC(=O)[C@@H]2CSSC[C@H](NC(=O)CN)C(=O)N[C@@H](Cc3cn(nn3)CC[C@@H](C(N)=O)NC1=O)C(=O)N[C@@H](CN)C(=O)N[C@@H](Cc1cnc[nH]1)C(=O)N1CCC[C@H]1C(=O)N[C@@H](C)C(=O)N2 (H-GC[Pra][Dap]HPACSVNNPDI[Aha]-NH2; disulfide 2-8; triazole 3-16)	< 15%
CC[C@H](C)[C@@H]1NC(=O)[C@H](CC(=O)O)NC(=O)[C@@H]2CCCN2C(=O)[C@H](CC(N)=O)NC(=O)[C@H](CC(N)=O)NC(=O)[C@H](C(C)C)NC(=O)[C@H](CO)NC(=O)[C@@H]2CSSC[C@@H]3NC(=O)CNC(=O)[C@@H](N)CCNC(=O)C[C@@H](C(N)=O)NC(=O)[C@H](CSSC[C@H](NC3=O)C(=O)N[C@@H](CN)C(=O)N[C@@H](Cc3cnc[nH]3)C(=O)N3CCC[C@H]3C(=O)N[C@@H](C)C(=O)N2)NC1=O (HELM PEPTIDE1{[Dab].G.C.C.[NC[C@H](N[*:1])C(=O)[*:2]].H.P.A.C.S.V.N.N.P.D.I.C.D.[am]}$PEPTIDE1,PEPTIDE1,1:R3-18:R3|PEPTIDE1,PEPTIDE1,3:R3-9:R3|PEPTIDE1,PEPTIDE1,4:R3-17:R3$$$V2.0)	< 5%

test system: not listed separately; assay: Stability in human serum assessed as parent compound remaining incubated at 24 hrs by RP-HPLC analysis; type: ADME, cell-free; settings: human serum, read-out: Stability

Compound	remaining at 24 h
CC[C@H](C)[C@@H]1NC(=O)[C@H](CC(=O)O)NC(=O)[C@@H]2CCCN2C(=O)[C@H](CC(N)=O)NC(=O)[C@H](CC(N)=O)NC(=O)[C@H](C(C)C)NC(=O)[C@H](CO)NC(=O)[C@@H]2CSSC[C@@H]3NC(=O)CNC(=O)CNC(=O)[C@H](C)NC(=O)[C@H](C)NC(=O)CNC(=O)CNC(=O)[C@H](CSSC[C@H](NC3=O)C(=O)N[C@@H](CN)C(=O)N[C@@H](Cc3cnc[nH]3)C(=O)N3CCC[C@H]3C(=O)N[C@@H](C)C(=O)N2)NC1=O (HELM PEPTIDE1{A.A.G.G.C.C.[NC[C@H](N[*:1])C(=O)[*:2]].H.P.A.C.S.V.N.N.P.D.I.C.G.G}$PEPTIDE1,PEPTIDE1,5:R3-11:R3|PEPTIDE1,PEPTIDE1,6:R3-19:R3|PEPTIDE1,PEPTIDE1,1:R1-21:R2$$$V2.0)	< 40%
CC[C@H](C)[C@@H]1NC(=O)[C@H](CC(=O)O)NC(=O)[C@@H]2CCCN2C(=O)[C@H](CC(N)=O)NC(=O)[C@H](CC(N)=O)NC(=O)[C@H](C(C)C)NC(=O)[C@H](CO)NC(=O)[C@@H]2CSCSC[C@@H]3NC(=O)CNC(=O)[C@@H](N)CCC(=O)NC[C@@H](C(N)=O)NC(=O)[C@H](CSSC[C@H](NC3=O)C(=O)N[C@@H](CN)C(=O)N[C@@H](Cc3cnc[nH]3)C(=O)N3CCC[C@H]3C(=O)N[C@@H](C)C(=O)N2)NC1=O (H-EGCC[Dap]HPACSVNNPDIC[Dap]-NH2; lactam 1-18; linker 3-9 via CH2; disulfide 4-17)	57.3%
CC[C@H](C)[C@@H]1NC(=O)[C@H](CC(=O)O)NC(=O)[C@@H]2CCCN2C(=O)[C@H](CC(N)=O)NC(=O)[C@H](CC(N)=O)NC(=O)[C@H](C(C)C)NC(=O)[C@H](CO)NC(=O)[C@@H]2CSSC[C@H](NC(=O)CN)C(=O)N[C@@H](CCC(=O)NC[C@@H](C(N)=O)NC1=O)C(=O)N[C@@H](CN)C(=O)N[C@@H](Cc1cnc[nH]1)C(=O)N1CCC[C@H]1C(=O)N[C@@H](C)C(=O)N2 (HELM PEPTIDE1{G.C.E.[NC[C@H](N[*:1])C(=O)[*:2]].H.P.A.C.S.V.N.N.P.D.I.[O=C([C@H](CN[*:3])N[*:1])[*:2]].[am]}$PEPTIDE1,PEPTIDE1,2:R3-8:R3|PEPTIDE1,PEPTIDE1,3:R3-16:R3$$$V2.0)	57.3%
